Literature values, collected in PMC10046020, “In Silico Screening and Optimization of Cell-Penetrating Peptides Using Deep Learning Methods” (Biomolecules, 2023).
Read-outs that look alike come from different tables or passages of the source.

Settings: cited from earlier work; for class (CPP / Non-CPP), Train Set: Spreadsheet S2: peptides collected from CellPPD
Description: Supplement biomolecules-13-00522-s001.zip/biomolecules-2162660_Supplementary Spreadsheets S1 Test Set.csv, table | column: class || Supplement biomolecules-13-00522-s001.zip/biomolecules-2162660_Supplementary Spreadsheets S2 Train Set.csv, table | column: class

[1] = Spreadsheet S1: 150 CPP and 150 non-CPP peptides collected from CellPPD, MLCPP, CPPsite 2.0, Lifetein and other publications
[2] = MLCPP, CPPsite 2.0, Lifetein and other publications

Substance | class (CPP / Non-CPP), Test Set [1] | other results
FTFGGGYVYFEEYAY | Non-CPP | 
FVPFFTHSELQKIREKERNKGQ | Non-CPP | 
FVPIFTHSELQKIREKERNKGQ | Non-CPP | 
GAPRLVLLFSGKRKSGKDFVTEA | Non-CPP | 
GCCSHPACNVNNPHICG | Non-CPP | 
GDCLPHLKLCKENKGCCSKKCKRRGTNIEKRCR | CPP | 
GFFTLIKAANKLINKTVNKEAGKGGLEIMA | Non-CPP | 
GGTSSSDAQQSLQSFWPRVM | Non-CPP | 
GGVCPKILRRCRRDSDCPGACICRGNGYCGSGSD | CPP | 
GHHSLKITDDPFDVPFPINDDHDS | Non-CPP | 
GIVEQCCDTPCSLYDPENYCN | Non-CPP | 
GLFLDTLKGLAGKLLQGLKCIKAGCKP | Non-CPP | 
GLKKLAELAHKLLKLGC | CPP | 
GLRKRLRKFRNKIKEKGLRKRLRKFRNKIKEK | CPP | 
GMNCSREYAHCTSAYV | Non-CPP | 
GNGEQREMAVSRLRDCLDRQA | CPP | 
GRCTKSIPPICFPA | CPP | 
GRCTKSIPPICWPD | CPP | 
GRGDGPRRKKKKGPRRKKKKGPRR | CPP | 
GRKKHRQPPQC | Non-CPP | 
GRKKRRERRRPPERKC | CPP | 
GRKKRRQ | CPP | 
GRKKRRQRRRG | CPP | 
GSSGMIPFPRV |  | class (CPP / Non-CPP), Test Set: Non-CPP

Substance | class (CPP / Non-CPP), Test Set [1] | other results
GWTLHSAGYLLGPHAI | Non-CPP | 
GWTLNSAGYLLEPHAI | Non-CPP | 
GWTLNSAGYLNGKFLPLILRKIVTAL | Non-CPP | 
GWTNLSAGCLLGPPPGFSPFR | Non-CPP | 
GWTNLSAGYLLGPPPGFSPFR | Non-CPP | 
GWTNLSAGYLLGPPPGFSPFS | Non-CPP | 
GWTNLSAQYLLGPPPGFSPFR | Non-CPP | 
HADGLFTSGYSKLLGQLSARRYLESLI | Non-CPP | 
HAQKQLSKTSWDFIEGEADDGITYSENIAAFKRIRLR | Non-CPP | 
HATKSQNINF |  | class (CPP / Non-CPP), Test Set: CPP
HDEFERHAEGEFTSDVSSYLEGQAAKEFIAWLVKGR | Non-CPP | 
HDEFERHAEGTFTSDVFSYLEGQAAKEFIAWLVKGR | Non-CPP | 
HGVSGHGQHGVHG |  | class (CPP / Non-CPP), Test Set: Non-CPP
HGWEIHGLLHRA |  | class (CPP / Non-CPP), Test Set: CPP
HHHHHHHHH |  | class (CPP / Non-CPP), Test Set: CPP
HSDGIFTDSYSRYRKQMAVKKYLAAVLGKRYKQRVKNK | CPP | 
HTPGNSNKWKHLQENKKGRPRR | CPP | 
IAARIFLRSRQHIKLRHL | Non-CPP | 
IAARIKLRSRQHIKLRHL | Non-CPP | 
IAARIKLRSRQYIKLRHL | Non-CPP | 
ICITRRSICMVTCNKEWPQNRNAHTFLI | Non-CPP | 
IDLNITMLEDHEFVP | Non-CPP | 
IHSHWFVMVLKGKAARQRDDLWTHPCFPS | Non-CPP | 
IKRYLIKR |  | class (CPP / Non-CPP), Test Set: Non-CPP

Substance | class (CPP / Non-CPP), Test Set [1] | other results
ILRRRIRKQAHFHSK | Non-CPP | 
INWLKLGKAIIDAL | Non-CPP | 
IPLVVPLC |  | class (CPP / Non-CPP), Test Set: CPP
IVMVGDGGVGKSAMTIQFIQSTFV | Non-CPP | 
IYLATALAKWALKQGFGGRRRRRRR |  | class (CPP / Non-CPP), Train Set [2]: CPP
IYLATALAKWALKQGGRRRRRRR |  | class (CPP / Non-CPP), Train Set [2]: CPP
KALKKLLAKWAAAKALL | CPP | 
KDCERRFSRSDQLKRHQRRHTGVKPFQK | CPP | 
KETWWETWWTEWSQPKKRKV | CPP | 
KFFKFFKFFK |  | class (CPP / Non-CPP), Test Set: CPP
KGRKKRRQRRRPPQ | CPP | 
KIWFMNRRMK |  | class (CPP / Non-CPP), Test Set: Non-CPP
KKKKKKKKK | CPP | 
KKKKKKKKLLLLLLLL | Non-CPP | 
KKKQYTWIHHGVVEVD | Non-CPP | 
KKLALHALHLLALLWLHLAHLALKK | CPP | 
KKLSECLKRIGDELDN | Non-CPP | 
KKLSECLKRIGDELDS | Non-CPP | 
KKLSECLKRIGVELDS | Non-CPP | 
KKLSLCLKRIGDELDS | Non-CPP | 
KKRTLRKNDRKKRC | CPP | 
KLAAKLALKALKAA | Non-CPP | 
KLAKLAKKLAKLAK | CPP | 
KLAKLAKKLAKLAKGGRRRRRRR | CPP | 
